Molecular target: T1, human MRP4 (Homo sapiens, UniProt O15439)
T1 construct: purchased GenoMembrane Co., Ltd. (Kanagawa, Japan); host or cells: Sf9
T1 sequence (O15439 1-1325): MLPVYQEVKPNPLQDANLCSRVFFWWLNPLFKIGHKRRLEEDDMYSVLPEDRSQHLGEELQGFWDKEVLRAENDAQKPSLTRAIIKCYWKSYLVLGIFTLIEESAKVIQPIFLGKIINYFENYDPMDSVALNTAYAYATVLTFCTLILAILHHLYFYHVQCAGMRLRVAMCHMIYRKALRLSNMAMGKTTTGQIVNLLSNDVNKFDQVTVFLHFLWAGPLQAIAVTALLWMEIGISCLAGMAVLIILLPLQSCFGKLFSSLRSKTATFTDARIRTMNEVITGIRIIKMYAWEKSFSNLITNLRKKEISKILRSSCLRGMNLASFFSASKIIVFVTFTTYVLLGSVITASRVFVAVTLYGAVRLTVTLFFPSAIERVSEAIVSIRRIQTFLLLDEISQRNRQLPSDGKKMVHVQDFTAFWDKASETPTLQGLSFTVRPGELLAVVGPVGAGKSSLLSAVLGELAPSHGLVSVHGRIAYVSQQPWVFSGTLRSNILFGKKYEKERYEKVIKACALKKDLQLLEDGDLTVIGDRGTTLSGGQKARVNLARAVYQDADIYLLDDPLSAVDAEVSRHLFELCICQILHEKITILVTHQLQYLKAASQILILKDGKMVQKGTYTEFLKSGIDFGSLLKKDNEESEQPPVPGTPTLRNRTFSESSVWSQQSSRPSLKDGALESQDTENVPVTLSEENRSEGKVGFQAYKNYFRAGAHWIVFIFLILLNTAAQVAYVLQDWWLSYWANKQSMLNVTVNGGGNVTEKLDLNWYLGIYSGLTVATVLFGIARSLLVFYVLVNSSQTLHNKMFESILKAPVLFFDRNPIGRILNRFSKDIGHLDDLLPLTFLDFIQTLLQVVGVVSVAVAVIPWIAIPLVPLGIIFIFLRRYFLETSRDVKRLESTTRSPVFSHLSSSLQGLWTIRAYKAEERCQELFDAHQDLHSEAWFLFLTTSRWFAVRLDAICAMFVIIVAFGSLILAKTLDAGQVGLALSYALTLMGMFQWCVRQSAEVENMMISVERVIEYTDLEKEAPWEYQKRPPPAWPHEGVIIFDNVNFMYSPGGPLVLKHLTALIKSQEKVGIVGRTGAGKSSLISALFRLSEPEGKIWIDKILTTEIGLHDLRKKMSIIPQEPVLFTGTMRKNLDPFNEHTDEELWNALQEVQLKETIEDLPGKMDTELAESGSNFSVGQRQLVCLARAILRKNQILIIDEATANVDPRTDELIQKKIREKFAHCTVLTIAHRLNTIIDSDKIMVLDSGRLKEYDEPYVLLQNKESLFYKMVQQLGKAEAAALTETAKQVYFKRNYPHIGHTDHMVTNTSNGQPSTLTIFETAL
Assay: Inhibition of tracer uptake in MRP4-expressing vesicles
Assay type: in vitro ADME
Details: MRP4, tracer [3H]E2G 10 µM
Experimental: For ABC transporters, experimental kits containing Sf9-derived vesicles with high expression levels of human P-gp, MRP4, BCRP, and each ABC transporter (including buffer, ATP/AMP solution, and glutathione) were purchased from GenoMembrane Co., Ltd. (Kanagawa, Japan).
Vesicular transport assays were carried out according to the manufacturer’s protocol. […] The reaction was started by suspending 50 μg of vesicles (10 μL) in 40 μL of the reaction buffer. After incubation for an appropriate period of time, the reaction was stopped by the addition of ice-cold stop buffer (40 mM MOPS-Tris and 70 mM KCl; pH 7.0), after which the solution was filtered through a 0.45 μm HA filter (Millipore Corp., Billerica, MA, USA) using suction, and was washed twice in 5 mL of ice-cold stop buffer. The radioactivity of the filter was measured with a Tri-Carb 2910TR liquid scintillation counter (PerkinElmer) using Ultima Gold (PerkinElmer). The amount of tracer uptake was normalized to the membrane protein amount described in the product information sheets.

N[C@]1(C(=O)O)C[C@@H](F)C1 [fluciclovine]
IC50: 9.28 ± 1.9 mM

From article PMC5085761 (International Journal of Molecular Sciences, 2016)
